Read-outs that look alike come from different tables or passages of the source.
Legend:
Format in all cases: cell-based
[1] = test system: Trypanosoma brucei Lister 427 VSG221 with APOL1 G1 recombinant protein; test: APOL1 G1 trypanosome cell rescue assay (Example B5); details: geometric mean of at least 2 assay runs, † = single assay run
Outline: (§1)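 Mature APOL1 (residues 28-398, E. coli-expressed, His-tag removed by TEV) was added as a 2 μg/mL solution to T. brucei Lister 427 VSG221 in modified HMI-9 medium at 250 cells/well, with duplicate 11-point 2-fold compound dilutions (0.4% DMSO). After 20 h at 37° C, 5% CO2, viability was read by CellTiter-Glo luminescence.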

[2] = test system: HEK293 clonal cell line overexpressing APOL1 G1; test: APOL1 G1 HEK293 cell rescue assay (Example B3); details: geometric mean of at least 2 runs, † = single run, ¥ = concentration at 50% rescue estimated (no sigmoidal curve)
Outline: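 HEK293 clonal line overexpressing APOL1 G1; EC50 is half-maximal reversal of APOL1-induced cell death. Values are the geometric mean of ≥2 runs on separate days, each run the average of duplicate wells. Where no sigmoidal curve could be fitted, the concentration giving 50% rescue was estimated.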

[3] = test system: Trypanosoma brucei Lister 427 VSG221 with APOL1 G2 recombinant protein; test: APOL1 G2 trypanosome cell rescue assay (Example B5); details: geometric mean of at least 2 assay runs, † = single assay run
Outline: as §1

[4] = test system: Trypanosoma brucei Lister 427 VSG221 with APOL1 G0 recombinant protein; test: APOL1 G0 trypanosome cell rescue assay (Example B5); details: geometric mean of at least 2 assay runs, † = single assay run
Outline: as §1

[5] = Trypanosoma brucei, 20 h, read-out: APOL1 G1 Trypanosome Rescue EC50, Trypanosoma brucei Lister 427 VSG221 with APOL1 G1 recombinant protein, 20 hours, CellTiter-Glo
[6] = Homo sapiens, HEK293, HEK293 clonal line overexpressing APOL1 G1
[7] = Trypanosoma brucei, 20 h, read-out: APOL1 G2 Trypanosome Rescue EC50, Trypanosoma brucei Lister 427 VSG221 with APOL1 G2 recombinant protein, 20 hours, CellTiter-Glo
[8] = Trypanosoma brucei, 20 h, read-out: APOL1 G0 Trypanosome Rescue EC50, Trypanosoma brucei Lister 427 VSG221 with APOL1 G0 recombinant protein, 20 hours, CellTiter-Glo
[9] = read-out: APOL1 G1 Trypanosome Rescue EC50, Trypanosoma brucei Lister 427 VSG221 with APOL1 G1 recombinant protein, 20 hours, CellTiter-Glo
[10] = HEK293 clonal line overexpressing APOL1 G1
[11] = read-out: APOL1 G2 Trypanosome Rescue EC50, Trypanosoma brucei Lister 427 VSG221 with APOL1 G2 recombinant protein, 20 hours, CellTiter-Glo
[12] = read-out: APOL1 G0 Trypanosome Rescue EC50, Trypanosoma brucei Lister 427 VSG221 with APOL1 G0 recombinant protein, 20 hours, CellTiter-Glo

In the case of `CC(c1ccc(OCCN2CCC3(CC2)C(=O)Nc2ccc(Cl)cc23)cc1)S(C)(=O)=O` (single isomer, unassigned) [Compound 39, 5-chloro-1′-(2-{4-[(1S) or (1R)-1-methanesulfonylethyl]phenoxy}ethyl)-1,2-dihydrospiro[indole-3,4′-piperidin]-2-one], the EC50 [1, 5] is reported as 206 nM, the EC50 [2, 6] is reported as > 247 nM and the EC50 [3, 7] is reported as 53 nM. It also gave an EC50 [4, 8] of 156 nM.

Molecule `O=C1CCc2cc(OCCN3CCC4(CC3)C(=O)Nc3ccc(Cl)cc34)cnc2N1[C@H]1C[C@@H](CO)C1` (single isomer, unassigned) [Compound 319, 5-chloro-1′-[2-({7-oxo-8-[(cis)-3-(hydroxymethyl)cyclobutyl]-5,6,7,8-tetrahydro-1,8-naphthyridin-3-yl}oxy)ethyl]-1,2-dihydrospiro[indole-3,4′-piperidin]-2-one] has an EC50 [1, 5] of 81.1 nM, an EC50 [2, 6] of 118 nM and an EC50 [3, 7] of 27 nM. The EC50 [4, 8] was 69.7 nM.

Work on `CC[C@]1(O)C[C@@H](N2C(=O)CCc3cc(OCCN4CCC5(CC4)C(=O)Nc4ccc(Cl)cc45)cnc32)C1` (single isomer, unassigned) [Compound 321, 5-chloro-1′-[2-({7-oxo-8-[(cis)-3-ethyl-3-hydroxycyclobutyl]-5,6,7,8-tetrahydro-1,8-naphthyridin-3-yl}oxy)ethyl]-1,2-dihydrospiro[indole-3,4′-piperidin]-2-one] yielded an EC50 [1, 5] of 45.9 nM, an EC50 [2, 6] of 47.7 nM and an EC50 [3, 7] of 14.3 nM. For the same molecule, the EC50 [4, 8] was 39.6 nM.

With `CC1(O)CC(CN2C(=O)CCc3cc(OCCN4CCC5(CC4)C(=O)Nc4ccc(Cl)cc45)cnc32)C1` (single isomer, unassigned) [Compound 322, 5-chloro-1′-{2-[(7-oxo-8-{[(trans) or (cis)-3-hydroxy-3-methylcyclobutyl]methyl}-5,6,7,8-tetrahydro-1,8-naphthyridin-3-yl)oxy]ethyl}-1,2-dihydrospiro[indole-3,4′-piperidin]-2-one] the EC50 [1, 9] was 34.9 nM, the EC50 [2, 10] was 38.6 nM and the EC50 [3, 11] was 11.7 nM. For the same molecule, the EC50 [4, 12] was 29.3 nM.

`C[C@]1(O)C[C@@H](n2ncc3cc(OCCN4CCC5(CC4)C(=O)Nc4ccc(Cl)cc45)cnc32)C1` (single isomer, unassigned) [Compound 357, 5-chloro-1′-[2-({1-[(cis)-3-hydroxy-3-methylcyclobutyl]-1H-pyrazolo[3,4-b]pyridin-5-yl}oxy)ethyl]-1,2-dihydrospiro[indole-3,4′-piperidin]-2-one] was tested, and the EC50 [1, 5] was 91.6 nM, the EC50 [2, 6] was 35.3 nM and the EC50 [3, 7] was 28.1 nM. For the same molecule, the EC50 [4, 8] was 61.2 nM.

Work on `CC1(O)CC(c2ncc(OCCN3CCC4(CC3)C(=O)Nc3ccc(Cl)cc34)cn2)C1` (single isomer, unassigned) [Compound 393, 5-chloro-1′-[2-({2-[(cis) or (trans)-3-hydroxy-3-methylcyclobutyl]pyrimidin-5-yl}oxy)ethyl]-1,2-dihydrospiro[indole-3,4′-piperidin]-2-one] yielded an EC50 [1, 9] of 360 nM, an EC50 [2, 10] of 159 nM and an EC50 [3, 11] of 120 nM. It also gave an EC50 [4, 12] of 300 nM.

Molecule `C[C@]1(O)C[C@H](n2ncc3cc(OCCN4CCC5(CC4)C(=O)Nc4ccc(Cl)cc45)cnc32)C1` (single isomer, unassigned) [Compound 408, 5-chloro-1′-[2-({1-[(trans)-3-hydroxy-3-methylcyclobutyl]-1H-pyrazolo[3,4-b]pyridin-5-yl}oxy)ethyl]-1,2-dihydrospiro[indole-3,4′-piperidin]-2-one] has an EC50 [1, 5] of 121 nM, an EC50 [2, 6] of 56 nM and an EC50 [3, 7] of 43.6 nM. For the same molecule, the EC50 [4, 8] was 84.8 nM.

`C[C@]1(O)C[C@@H](N2C(=O)CCc3cc(OCCN4CCC5(CC4)C(=O)Nc4ccc(OC(F)F)cc45)cnc32)C1` [Cmpd 325, 5-(difluoromethoxy)-1′-[2-({7-oxo-8-[(cis)-3-hydroxy-3-methylcyclobutyl]-5,6,7,8-tetrahydro-1,8-naphthyridin-3-yl}oxy)ethyl]-1,2-dihydrospiro[indole-3,4′-piperidin]-2-one] was tested, and the EC50 [1, 5] was 269 nM, the EC50 [2, 6] was 197 nM and the EC50 [3, 7] was 77.5 nM. For the same molecule, the EC50 [4, 8] was 213 nM.

In the case of `CC(c1ncc(OCCN2CCC3(CC2)C(=O)Nc2ccc(Cl)cc23)cn1)S(C)(=O)=O` (centres unmarked) [Compound 1, 5-Chloro-1′-(2-{[2-(1-methanesulfonylethyl)pyrimidin-5-yl]oxy}ethyl)-1,2-dihydrospiro[indole-3,4′-piperidin]-2-one], the EC50 [1, 5] is reported as 293 nM, the EC50 [2, 6] is reported as 302 nM and the EC50 [3, 7] is reported as 89.6 nM. The EC50 [4, 8] was 225 nM.

In the case of `CS(=O)(=O)C1(c2ncc(OCCN3CCC4(CC3)C(=O)Nc3ccc(Cl)cc34)cn2)CC1` [Compound 4, 5-chloro-1′-(2-{[2-(1-methanesulfonylcyclopropyl)pyrimidin-5-yl]oxy}ethyl)-1,2-dihydrospiro[indole-3,4′-piperidin]-2-one], the EC50 [1, 5] is reported as 171 nM, the EC50 [2, 6] is reported as 177 nM and the EC50 [3, 7] is reported as 51.9 nM. For the same molecule, the EC50 [4, 8] was 116 nM.

In the case of `Cc1nc(-c2ccc(OCCN3CCC4(CC3)C(=O)N(C)c3ccccc34)cc2)no1` [Compound 35, 1-methyl-1′-{2-[4-(5-methyl-1,2,4-oxadiazol-3-yl)phenoxy]ethyl}-1,2-dihydrospiro[indole-3,4′-piperidin]-2-one], the EC50 [1, 5] is reported as > 4000 nM, the EC50 [2, 6] is reported as 488 nM and the EC50 [3, 7] is reported as > 4000 nM. For the same molecule, the EC50 [4, 8] was > 4000 nM.

In the case of `CC(=O)N1CCCc2cc(OCCN3CCC4(CC3)C(=O)N(C)c3ccccc34)ccc21` [Compound 36, 1′-{2-[(1-acetyl-1,2,3,4-tetrahydroquinolin-6-yl)oxy]ethyl}-1-methyl-1,2-dihydrospiro[indole-3,4′-piperidin]-2-one], the EC50 [1, 5] is reported as > 4000 nM, the EC50 [2, 6] is reported as > 2150 nM and the EC50 [3, 7] is reported as 1710 nM. For the same molecule, the EC50 [4, 8] was > 4000 nM.

For `CS(=O)(=O)c1c(F)cc(OCCN2CCC3(CC2)C(=O)Nc2ccccc23)cc1F` [Compound 42, 1′-[2-(3,5-difluoro-4-methanesulfonylphenoxy)ethyl]-1,2-dihydrospiro[indole-3,4′-piperidin]-2-one], the EC50 [1, 5] was 1880 nM, the EC50 [2, 6] was 1080 nM and the EC50 [3, 7] was 406 nM. It also gave an EC50 [4, 8] of 1260 nM.

Molecule `O=C1Nc2ccc(Cl)cc2C12CCN(CCOc1ccc(S(=O)(=O)C3CC3)cc1)CC2` [Compound 43, 5-chloro-1′-{2-[4-(cyclopropanesulfonyl)phenoxy]ethyl}-1,2-dihydrospiro[indole-3,4′-piperidin]-2-one] has an EC50 [1, 5] of 86.6 nM, an EC50 [2, 6] of 131 nM and an EC50 [3, 7] of 19.4 nM. For the same molecule, the EC50 [4, 8] was 52.2 nM.

Molecule `O=C1Nc2ccccc2C12CCN(CCOc1ccc(S(=O)(=O)C(F)F)cc1)CC2` [Compound 44, 1′-[2-(4-difluoromethanesulfonylphenoxy)ethyl]-1,2-dihydrospiro[indole-3,4′-piperidin]-2-one] has an EC50 [1, 5] of 429 nM, an EC50 [2, 6] of 478 nM and an EC50 [3, 7] of 119 nM. For the same molecule, the EC50 [4, 8] was 331 nM.

Molecule `NC(=O)c1ccc(OCCN2CCC3(CC2)C(=O)Nc2ccc(Cl)cc23)cc1` [Compound 45, 4-(2-{5-chloro-2-oxo-1,2-dihydrospiro[indole-3,4′-piperidin]-1′-yl}ethoxy)benzamide] has an EC50 [1, 5] of 747 nM, an EC50 [2, 6] of 387 nM and an EC50 [3, 7] of 162 nM. For the same molecule, the EC50 [4, 8] was 476 nM.

Work on `NC(=O)c1ccc(OCCN2CCC3(CC2)C(=O)Nc2ccc(Cl)cc23)cc1F` [Compound 46, 4-(2-{5-chloro-2-oxo-1,2-dihydrospiro[indole-3,4′-piperidin]-1′-yl}ethoxy)-2-fluorobenzamide] yielded an EC50 [1, 5] of 215 nM, an EC50 [2, 6] of 253 nM and an EC50 [3, 7] of 50.5 nM. It also gave an EC50 [4, 8] of 156 nM.

For `Cc1cc(OCCN2CCC3(CC2)C(=O)Nc2ccc(Cl)cc23)ccc1C(N)=O` [Compound 49, 4-(2-{5-chloro-2-oxo-1,2-dihydrospiro[indole-3,4′-piperidin]-1′-yl}ethoxy)-2-methylbenzamide], the EC50 [1, 5] was 304 nM, the EC50 [2, 6] was 260 nM and the EC50 [3, 7] was 109 nM. It also gave an EC50 [4, 8] of 213 nM.

Molecule `CS(=O)(=O)c1ccc(OCCN2CCC3(CC2)C(=O)Nc2ccc(Cl)cc23)cc1C#N` [Compound 50, 5-(2-{5-chloro-2-oxo-1,2-dihydrospiro[indole-3,4′-piperidin]-1′-yl}ethoxy)-2-methanesulfonylbenzonitrile] has an EC50 [1, 5] of 44.9 nM, an EC50 [2, 6] of 91.1 nM and an EC50 [3, 7] of 10.2 nM. For the same molecule, the EC50 [4, 8] was 30 nM.

Molecule `C[C@]1(O)C[C@@H](n2cnc3cc(OCCN4CCC5(CC4)C(=O)Nc4ccc(C(F)F)cc45)cc(C(F)(F)F)c32)C1` [Compound 450, 5-(difluoromethyl)-1′-[2-({1-[(cis)-3-hydroxy-3-methylcyclobutyl]-7-(trifluoromethyl)-1H-1,3-benzodiazol-5-yl}oxy)ethyl]-1,2-dihydrospiro[indole-3,4′-piperidin]-2-one] has an EC50 [2, 6] of 14.9 nM.
